According to paper PMC11748363, “Antimicrobial and Antiproliferative Properties of 2‐Phenyl‐N‐(Pyridin‐2‐yl)acetamides” (Chemical Biology & Drug Design, 2025):
pIC50: −log10 of the molar value. ≈ marks a conversion by molar mass, not a printed value. Where two headings read alike, the source gives them in different places.

Experiments:
[1] = tested on: Candida tropicalis CCM 8264, ATCC 750; assay: Antifungal microdilution broth MIC, CT
[2] = tested on: Candida albicans CCM 8320, ATCC 24433; assay: Antifungal microdilution broth MIC, CA
[3] = tested on: Aspergillus fumigatus ATCC 204305; assay: Antifungal microdilution broth MIC, AF
[4] = tested on: Trichophyton interdigitale CCM 8377, ATCC 9533; assay: Antifungal microdilution broth MIC, TI; settings: Trichophyton interdigitale
[5] = tested on: Staphylococcus aureus subsp. aureus CCM 4750, ATCC 43300 (MRSA); assay: Antibacterial microdilution broth MIC, MRSA; format: cell-based; settings: Staphylococcus aureus
[6] = tested on: Lichtheimia corymbifera CCM 8077; assay: Antifungal microdilution broth MIC, LC
[7] = tested on: Klebsiella pneumoniae CCM 4415, ATCC 10031; assay: Antibacterial microdilution broth MIC, KP
[8] = tested on: Mycolicibacterium smegmatis DSM 43465; assay: Antimycobacterial microdilution broth MIC (resazurin), M. smegmatis; format: cell-based; settings: DSM43465, read-out: MIC M. smegmatis
[9] = tested on: Enterococcus faecalis CCM 4224, ATCC 29212; assay: Antibacterial microdilution broth MIC, EF; format: cell-based
[10] = tested on: Acinetobacter baumannii DSM 30007, ATCC 19606; assay: Antibacterial microdilution broth MIC, ACI; format: cell-based
[11] = tested on: Staphylococcus epidermidis CCM 4418, ATCC 12228; assay: Antibacterial microdilution broth MIC, SE; format: cell-based
[12] = tested on: Candida parapsilosis CCM 8260, ATCC 22019; assay: Antifungal microdilution broth MIC, CP; settings: Lodderomyces parapsilosis
[13] = tested on: Aspergillus flavus CCM 8363; assay: Antifungal microdilution broth MIC, AFla
[14] = tested on: Escherichia coli CCM 3954, ATCC 25922; assay: Antibacterial microdilution broth MIC, EC; format: cell-based
[15] = tested on: Candida krusei CCM 8271, ATCC 6258; assay: Antifungal microdilution broth MIC, CK; settings: Pichia kudriavzevii
[16] = tested on: Staphylococcus aureus CCM 4223, ATCC 29213; assay: Antibacterial microdilution broth MIC, SA; format: cell-based; settings: Staphylococcus aureus
[17] = tested on: Pseudomonas aeruginosa CCM 3955, ATCC 27853; assay: Antibacterial microdilution broth MIC, PA; format: cell-based
HepG2 cell line = assay: Cytotoxicity CellTiter 96, HepG2; format: cell-based, human; settings: Homo sapiens, HepG2, 24 h, 24 h incubation; ^c compound precipitated in the testing medium; ^d over the limit of tested concentrations
Method: The cytotoxicity of final compounds was determined in human hepatocellular carcinoma cell line HepG2.
Cytotoxicity determination
Human hepatocellular liver carcinoma cell line HepG2 purchased from Health Protection Agency Culture Collections (ECACC, Salisbury, UK) was cultured in MEM (Minimum Essentials Eagle Medium, Sigma–Aldrich) supplemented with 10% fetal bovine serum (PAA Laboratories, Pasching, Austria), 1% L-glutamine solution (Sigma–Aldrich) and non-essential amino acid solution (Sigma–Aldrich) in a humidified atmosphere containing 5% CO2 at 37 °C. For subculturing, the cells were harvested after trypsin/EDTA (Sigma–Aldrich) treatment at 37 °C. To evaluate cytotoxicity, the cells treated with the tested substances were used as experimental groups whereas untreated HepG2 cells served as controls. The cells were seeded in density 10,000 cells per well in a 96 well plate. The next day the cells were treated with each of the tested substances dissolved in DMSO. The tested substances were
in triplicates according to their solubility. Simultaneously, the controls representing 100% cell viability, 0% cell viability (the cells treated with 10% DMSO), no cell control and vehiculum controls were also
the reagent from the kit CellTiter 96 AQueous One Solution Cell Proliferation Assay (CellTiter 96; PROMEGA, Fitchburg, USA) was added. After 2h incubation at 37 °C, absorbance of samples was recorded at 490 nm (TECAN, Infinita M200, Austria). A standard toxicological parameter IC50 was calculated by nonlinear regression from a semilogarithmic plot of incubation concentration versus percentage of absorbance relative to untre ated controls using GraphPad Prism 8 software.

[18] = tested on: Mycolicibacterium aurum DSM 43999; assay: Antimycobacterial microdilution broth MIC (resazurin), M. aurum; format: cell-based; settings: DSM43999, read-out: MIC M. aurum
[19] = tested on: Mycobacterium tuberculosis H37Ra; assay: Antimycobacterial microdilution broth MIC (resazurin), Mtb H37Ra; format: cell-based; settings: for MIC: Mycobacterium tuberculosis, H37RA, read-out: MIC Mtb H37Ra
[20] = ATCC204305, 24 h, read-out: MIC AF 24h
[21] = ATCC204305, 48 h, read-out: MIC AF 48h
[22] = CCM8077, 24 h, read-out: MIC LC 24h
[23] = CCM8077, 48 h, read-out: MIC LC 48h
[24] = CCM8363, 24 h, read-out: MIC AFla 24h
[25] = CCM8363, 48 h, read-out: MIC AFla 48h

Structure (SMILES)	MIC ([1]; 24 h, read-out: MIC CT 24h)	MIC ([1]; 48 h, read-out: MIC CT 48h)	MIC ([2]; 24 h, read-out: MIC CA 24h)	MIC ([2]; 48 h, read-out: MIC CA 48h)	MIC [3, 20]	MIC [3, 21]	MIC ([4]; 72 h, read-out: MIC TI 72h)	MIC ([4]; 120 h, read-out: MIC TI 120h)	MIC ([5]; 24 h, read-out: MIC MRSA 24h)	MIC ([5]; 48 h, read-out: MIC MRSA 48h)	MIC [6, 22]	MIC [6, 23]	MIC KP 24h [7]	MIC KP 48h [7]	MIC [8]	MIC ([9]; 24 h, read-out: MIC EF 24h)	MIC ([9]; 48 h, read-out: MIC EF 48h)	MIC ([10]; 24 h, read-out: MIC ACI 24h)	MIC ([10]; 48 h, read-out: MIC ACI 48h)	MIC ([11]; 24 h, read-out: MIC SE 24h)	also measured
O=C(Cc1ccccc1Cl)Nc1ccc(Cl)cn1 [Compound 14, 2-(2-chlorophenyl)-N-(5-chloropyridin-2-yl)acetamide]	> 500 µM	> 500 µM	> 500 µM	> 500 µM	> 500 µM	> 500 µM	> 500 µM	> 500 µM	> 500 µM	> 500 µM	> 500 µM	> 500 µM	> 500 µM	> 500 µM	> 500 µg/mL	> 500 µM	> 500 µM	> 500 µM	> 500 µM	> 500 µM	MIC ([11]; 48 h, read-out: MIC SE 48h): > 500 µM; MIC ([12]; 24 h, read-out: MIC CP 24h): > 500 µM; MIC ([12]; 48 h, read-out: MIC CP 48h): > 500 µM; MIC [13, 24]: > 500 µM; MIC [13, 25]: > 500 µM; MIC ([14]; 24 h, read-out: MIC EC 24h): > 500 µM; MIC ([14]; 48 h, read-out: MIC EC 48h): > 500 µM; MIC ([15]; 24 h, read-out: MIC CK 24h): > 500 µM; MIC ([15]; 48 h, read-out: MIC CK 48h): > 500 µM; MIC ([16]; 24 h, read-out: MIC SA 24h): > 500 µM; MIC ([16]; 48 h, read-out: MIC SA 48h): > 500 µM; MIC ([17]; 24 h, read-out: MIC PA 24h): > 500 µM; MIC ([17]; 48 h, read-out: MIC PA 48h): > 500 µM; pIC50 (HepG2 cell line): < 4.30; MIC [18]: > 500 µg/mL; MIC ([19]; Calculated from MIC (μg/mL)): > 1780 µM; MIC [19]: > 500 µg/mL
O=C(Cc1ccccc1Cl)Nc1cccc(Cl)n1 [Compound 15, 2-(2-chlorophenyl)-N-(6-chloropyridin-2-yl)acetamide]	> 500 µM	> 500 µM	> 500 µM	> 500 µM	> 500 µM	> 500 µM	500 µM (≈ 141 µg/mL)	500 µM (≈ 141 µg/mL)	> 500 µM	> 500 µM	> 500 µM	> 500 µM	> 500 µM	> 500 µM	> 500 µg/mL	> 500 µM	> 500 µM	> 500 µM	> 500 µM	> 500 µM	MIC ([11]; 48 h, read-out: MIC SE 48h): > 500 µM; MIC ([12]; 24 h, read-out: MIC CP 24h): > 500 µM; MIC ([12]; 48 h, read-out: MIC CP 48h): > 500 µM; MIC [13, 24]: > 500 µM; MIC [13, 25]: > 500 µM; MIC ([14]; 24 h, read-out: MIC EC 24h): > 500 µM; MIC ([14]; 48 h, read-out: MIC EC 48h): > 500 µM; MIC ([15]; 24 h, read-out: MIC CK 24h): 500 µM (≈ 141 µg/mL); MIC ([15]; 48 h, read-out: MIC CK 48h): 500 µM (≈ 141 µg/mL); MIC ([16]; 24 h, read-out: MIC SA 24h): > 500 µM; MIC ([16]; 48 h, read-out: MIC SA 48h): > 500 µM; MIC ([17]; 24 h, read-out: MIC PA 24h): > 500 µM; MIC ([17]; 48 h, read-out: MIC PA 48h): > 500 µM; pIC50 (HepG2 cell line): < 4.00; MIC [18]: 250 µg/mL (≈ 889 µM); MIC ([19]; Calculated from MIC (μg/mL)): 111 µM; MIC [19]: 31.2 µg/mL; SI (selectivity index) ([19]; SI = HepG2 IC50 (μM)/MIC MtbH37Ra (μM), calculated for compounds with MIC ≤ 31.25 μg/mL): > 0.9
